Source: ChEMBL document CHEMBL4334442, “Effects of Acetylshikonin on the Infection and Replication of Coxsackievirus A16 in Vitro and in Vivo” (J Nat Prod, 2019)
Activity calls are given as the source filed them. No cut-off for these calls is given here.

Key:
[1] = tested on: Coxsackievirus A16; assay: Antiviral activity against Coxsackievirus A16 TA271 infected in ICR mouse assessed as reduction in viral load in spinal muscle at 2 mg/kg, im after 3 to 5 days post infection by RT-PCR analysis; format: functional, organism-based
[2] = tested on: Coxsackievirus A16; assay: Antiviral activity against Coxsackievirus A16 TA271 infected in ICR mouse assessed as reduction in viral load in hind limb muscle at 0.08 uM/L preincubated with viral suspension for 2 hrs followed by intramuscular administration after 3 to 5 days post infection by RT-PCR analysis; format: functional
[3] = tested on: Coxsackievirus A16; assay: Antiviral activity against Coxsackievirus A16 TA271 infected in human RD cells assessed as inhibition of virus-induced cytopathic effect at 0.08 uM/L preincubated with viral suspension for 2 hrs followed by cell addition and measured after 24 hrs by CCK-8 assay relative to control; format: functional; details: Enterovirus A
[4] = tested on: Coxsackievirus A16; assay: Antiviral activity against Coxsackievirus A16 TA271 infected in ICR mouse assessed as reduction in viral load in heart at 2 mg/kg, im after 3 to 5 days post infection by RT-PCR analysis; format: functional, organism-based
[5] = tested on: Coxsackievirus A16; assay: Antiviral activity against Coxsackievirus A16 TA271 infected in ICR mouse assessed as reduction in viral load in lung at 0.08 uM/L preincubated with viral suspension for 2 hrs followed by intramuscular administration after 3 to 5 days post infection by RT-PCR analysis; format: functional
[6] = tested on: Coxsackievirus A16; assay: Antiviral activity against Coxsackievirus A16 TA271 infected in RD cells at replication stage assessed as cell fragmentation at 0.08 uM/L 1 hr post-infection viral inoculum was removed and cells incubated with medium containing compound and measured after 5 hrs by inverted microscopic analysis; format: functional, cell-based
[7] = tested on: Coxsackievirus A16; assay: Antiviral activity against Coxsackievirus A16 TA271 infected in RD cells assessed as inhibition of viral adsorption/entry by measuring reduction in viral load at 0.08 uM/L incubated for 1 hr and measured after 48 hrs post infection by RT-PCR analysis; format: functional, cell-based
[8] = tested on: Coxsackievirus A16; assay: Antiviral activity against Coxsackievirus A16 TA271 infected in ICR mouse assessed as reduction in viral load in lung at 2 mg/kg, im after 3 to 5 days post infection by RT-PCR analysis; format: functional, organism-based
[9] = tested on: Coxsackievirus A16; assay: Antiviral activity against Coxsackievirus A16 TA271 infected in ICR mouse assessed as reduction in lesions in hind limb muscle at 2 mg/kg, im after 5 days post infection by H and E staining based histopathological analysis; format: functional, organism-based
[10] = tested on: Coxsackievirus A16; assay: Antiviral activity against Coxsackievirus A16 TA271 infected in ICR mouse assessed as reduction in viral load in spinal muscle at 0.08 uM/L preincubated with viral suspension for 2 hrs followed by intramuscular administration after 3 to 5 days post infection by RT-PCR analysis; format: functional
[11] = tested on: Coxsackievirus A16; assay: Antiviral activity against Coxsackievirus A16 TA271 infected in ICR mouse assessed as reduction in virus-induced IL-6 level at 0.08 uM/L preincubated with viral suspension for 2 hrs followed by intramuscular administration after 3 days post infection by ELISA; format: functional
[12] = tested on: Coxsackievirus A16; assay: Antiviral activity against Coxsackievirus A16 TA271 infected in ICR mouse assessed as reduction in muscle fiber breakage in lung at 2 mg/kg, im after 5 days post infection by H and E staining based histopathological analysis; format: functional, organism-based
[13] = tested on: Coxsackievirus A16; assay: Antiviral activity against Coxsackievirus A16 TA271 infected in RD cells assessed as effect on viral load at preinfection stage at 0.08 uM/L preincubated with cells for 3 hrs followed by viral infection for 1 hr and measured after 48 hrs post infection in fresh medium by RT-PCR analysis; format: functional, cell-based
[14] = tested on: Coxsackievirus A16; assay: Antiviral activity against Coxsackievirus A16 TA271 infected in ICR mouse assessed as reduction in lesions in spinal muscle at 2 mg/kg, im after 5 days post infection by H and E staining based histopathological analysis; format: functional, organism-based
[15] = tested on: Coxsackievirus A16; assay: Antiviral activity against Coxsackievirus A16 TA271 infected in ICR mouse assessed as reduction in inflammatory cell infiltration in heart at 2 mg/kg, im after 5 days post infection by H and E staining based histopathological analysis; format: functional, organism-based
[16] = tested on: Coxsackievirus A16; assay: Antiviral activity against Coxsackievirus A16 TA271 infected in ICR mouse assessed as mild alveolar fibrosis in lung at 2 mg/kg, im after 5 days post infection by H and E staining based histopathological analysis; format: functional, organism-based
[17] = tested on: Coxsackievirus A16; assay: Antiviral activity against Coxsackievirus A16 TA271 infected in ICR mouse assessed as mild alveolar wall thickening in lung at 2 mg/kg, im after 5 days post infection by H and E staining based histopathological analysis; format: functional, organism-based
[18] = tested on: Coxsackievirus A16; assay: Antiviral activity against Coxsackievirus A16 TA271 infected in ICR mouse assessed as effect on virus-induced IL-6 level at 0.08 uM/L preincubated with viral suspension for 2 hrs followed by intramuscular administration after 3 days post infection by ELISA; format: functional
[19] = tested on: Coxsackievirus A16; assay: Antiviral activity against Coxsackievirus A16 TA271 infected in RD cells assessed as effect on viral load at release stage at 0.08 uM/L preincubated with cells for 1 hr followed by replacement of fresh medium containing compounds for 16 hrs and measured after 48 hrs post infection by RT-PCR analysis; format: functional, cell-based
[20] = tested on: Coxsackievirus A16; assay: Antiviral activity against Coxsackievirus A16 TA271 infected in ICR mouse assessed as mouse survival at 0.08 uM/L preincubated with viral suspension for 2 hrs followed by intramuscular administration and measured on day 7 post infection relative to control; format: functional; details: Enterovirus A, TA271, im
[21] = tested on: Coxsackievirus A16; assay: Antiviral activity against Coxsackievirus A16 TA271 infected in ICR mouse assessed as reduction in lesions in lung at 2 mg/kg, im after 5 days post infection by H and E staining based histopathological analysis; format: functional, organism-based
[22] = tested on: Mus musculus; assay: Effect on IL-6 level in ICR mouse at 2 mg/kg, administered intramuscularly by ELISA; format: functional, organism-based
[23] = tested on: Coxsackievirus A16; assay: Antiviral activity against Coxsackievirus A16 TA271 infected in ICR mouse assessed as reduction in muscle fiber breakage in hind limb muscle at 2 mg/kg, im after 5 days post infection by H and E staining based histopathological analysis; format: functional, organism-based
[24] = tested on: Coxsackievirus A16; assay: Antiviral activity against Coxsackievirus A16 TA271 infected in ICR mouse assessed as reduction in virus-induced IFN-gamma level at 2 mg/kg, im after 3 days post infection by ELISA; format: functional, organism-based
[25] = tested on: Coxsackievirus A16; assay: Antiviral activity against Coxsackievirus A16 TA271 infected in ICR mouse assessed as mouse survival at 2 mg/kg, im measured on day 6 post infection relative to control; format: functional; details: Enterovirus A, 144 h
[26] = tested on: Coxsackievirus A16; assay: Antiviral activity against Coxsackievirus A16 TA271 infected in ICR mouse assessed as reduction in muscle fiber breakage in spinal muscle at 2 mg/kg, im after 5 days post infection by H and E staining based histopathological analysis; format: functional, organism-based
[27] = tested on: Coxsackievirus A16; assay: Antiviral activity against Coxsackievirus A16 TA271 infected in RD cells at preinfection stage assessed as appearance of cell shrinkage at 0.08 uM/L preincubated with cells for 3 hrs followed by viral infection and measured after 1 hr by inverted microscopic analysis; format: functional, cell-based
[28] = tested on: Coxsackievirus A16; assay: Antiviral activity against Coxsackievirus A16 TA271 infected in ICR mouse assessed as mild alveolar fibrosis in hind limb muscle at 2 mg/kg, im after 5 days post infection by H and E staining based histopathological analysis; format: functional, organism-based
[29] = tested on: Coxsackievirus A16; assay: Antiviral activity against Coxsackievirus A16 TA271 infected in RD cells at preinfection stage assessed as cell fragmentation at 0.08 uM/L preincubated with cells for 3 hrs followed by viral infection and measured after 1 hr by inverted microscopic analysis; format: functional, cell-based

Structure (SMILES): CC(=O)OC(CC=C(C)C)C1=CC(=O)c2c(O)ccc(O)c2C1=O (centres undefined)
- Activity [1]: Active
- Activity [2]: Active
- inhibition at 0.08 µM [3]: 80%
- Activity [4]: Active
- Activity [5]: Active
- Activity [6]: inactive
- Activity [7]: Active
- Activity [8]: Active
- Activity [9]: Active
- Activity [10]: Active
- Activity [11]: Active
- Activity [12]: Active
- Activity [13]: inactive
- Activity [14]: Active
- Activity [15]: Active
- Activity [16]: Active
- Activity [17]: Active
- Activity [18]: inactive
- Activity [19]: inactive
- survival at 0.08 µM [20]: 70%
- Activity [21]: Active
- Activity [22]: inactive
- Activity [23]: Active
- Activity [24]: Active
- survival at 2 mg/kg [25]: 50%
- Activity [26]: Active
- Activity [27]: inactive
- Activity [28]: Active
- Activity [29]: inactive
